Values after ≈ are worked out from the molar mass of the structure shown.
Legend:
Format in all cases: functional
Details in all cases: read-out: ED50 (the source's name)
A549 = assay: Cytotoxicity against human A549 cells
HCT-15 = assay: Cytotoxicity against human HCT15 cells
SK-MEL-2 = assay: Cytotoxicity against human SK-MEL-2 cells
SK-OV-3 = assay: Cytotoxicity against human SKOV3 cells
XF498 = assay: Cytotoxicity against human XF498 cells

| SMILES | EC50 (A549) [µg/mL] | EC50 (HCT-15) [µg/mL] | EC50 (SK-MEL-2) [µg/mL] | EC50 (SK-OV-3) [µg/mL] | EC50 (XF498) [µg/mL] |
| --- | --- | --- | --- | --- | --- |
| CC(C)[C@H](/C=C/[C@@H](C)[C@H]1C[C@@H](O)[C@H]2[C@@H]3C[C@H](O)[C@H]4C[C@@H](O)CC[C@]4(C)[C@H]3CC[C@@]21C)CO [CERTONARDOSTEROL D2] | 0.15 (≈ 0.334 µM) | 0.01 (≈ 0.0223 µM) | 0.09 (≈ 0.201 µM) | 0.08 (≈ 0.178 µM) | 0.07 (≈ 0.156 µM) |
| CC(C)[C@@H](CCO)CC[C@@H](C)[C@H]1[C@@H](O)[C@@H](O)[C@@H]2[C@]1(C)CC[C@@H]1[C@@]3(C)CC[C@H](O)C[C@@H]3[C@@H](O)C[C@]12O [CERTONARDOSTEROL O1] | 8.32 (≈ 16.7 µM) | 17.7 (≈ 35.6 µM) | 5.32 (≈ 10.7 µM) | 6.59 (≈ 13.3 µM) | 6.92 (≈ 13.9 µM) |
| C[C@H](/C=C/[C@@H](C)[C@H]1C[C@@H](O)[C@H]2[C@@H]3C[C@H](O)[C@H]4[C@@H](O)[C@@H](O)CC[C@]4(C)[C@H]3CC[C@@]21C)[C@H](C)CO [CERTONARDOSTEROL B2] | 2.33 (≈ 5.01 µM) | 2.71 (≈ 5.83 µM) | 2.23 (≈ 4.8 µM) | 2.64 (≈ 5.68 µM) | 2.21 (≈ 4.76 µM) |
| C[C@H](/C=C/[C@@H](C)[C@H]1C[C@@H](O)[C@@H]2[C@]1(C)CC[C@@H]1[C@@]3(C)CC[C@H](O)C[C@@H]3[C@@H](O)C[C@]12O)[C@H](C)CO [CERTONARDOSTEROL C2] | 0.15 (≈ 0.323 µM) | 0.25 (≈ 0.538 µM) | < 0.1 | 0.16 (≈ 0.344 µM) | 0.08 (≈ 0.172 µM) |
| COc1cccc2c1C(=O)c1c(O)c3c(c(O)c1C2=O)C[C@@](O)(C(=O)CO)C[C@@H]3O[C@H]1C[C@H](N)[C@H](O)[C@H](C)O1 [DOXORUBICIN] | 0.01 (≈ 0.0184 µM) | 0.06 (≈ 0.11 µM) | 0.02 (≈ 0.0368 µM) | 0.08 (≈ 0.147 µM) | 0.06 (≈ 0.11 µM) |
| CO[C@@H]1CO[C@@H](OCC[C@@H](CC[C@@H](C)[C@H]2[C@@H](O)[C@@H](O)[C@@H]3[C@]2(C)CC[C@@H]2[C@@]4(C)CC[C@H](O)[C@H](O)[C@@H]4[C@@H](O)C[C@]23O)C(C)C)[C@H](O)[C@H]1O [CERTONARDOSIDE I2] | 4.26 (≈ 6.47 µM) | 8.32 (≈ 12.6 µM) | 2.39 (≈ 3.63 µM) | 3.06 (≈ 4.64 µM) | 3.69 (≈ 5.6 µM) |
| C[C@H](/C=C/[C@@H](C)[C@H]1C[C@@H](O)[C@H]2[C@@H]3C[C@H](O)[C@H]4C[C@@H](O)CC[C@]4(C)[C@H]3CC[C@@]21C)[C@H](C)CO [CERTONARDOSTEROL D4] | 1.75 (≈ 3.9 µM) | 1.25 (≈ 2.79 µM) | 0.48 (≈ 1.07 µM) | 1.51 (≈ 3.37 µM) | 1.22 (≈ 2.72 µM) |
| CO[C@@H]1CO[C@@H](OCC[C@@H](/C=C/[C@@H](C)[C@H]2[C@@H](O)[C@@H](O)[C@H]3[C@@H]4C[C@H](O)[C@H]5[C@@H](O)[C@@H](O)CC[C@]5(C)[C@H]4CC[C@]23C)C(C)C)[C@H](O)[C@H]1O [CERTONARDOSIDE J3] | 0.83 (≈ 1.3 µM) | 2.76 (≈ 4.31 µM) | 0.3 (≈ 0.468 µM) | 0.74 (≈ 1.15 µM) | 0.45 (≈ 0.702 µM) |
| CC(C)[C@@H](CCO)CC[C@@H](C)[C@H]1[C@@H](O)[C@@H](O)[C@@H]2[C@]1(C)CC[C@@H]1[C@@]3(C)CC[C@H](O)[C@H](O)[C@@H]3[C@@H](O)C[C@]12O [CERTONARDOSTEROL P1] | 3.3 (≈ 6.44 µM) | 4.39 (≈ 8.56 µM) | 2.5 (≈ 4.88 µM) | 3.5 (≈ 6.83 µM) | 3.48 (≈ 6.79 µM) |
| CC(C)[C@@H](CCO)CC[C@@H](C)[C@H]1C[C@@H](O)[C@H]2[C@@H]3C[C@H](O)[C@H]4C[C@@H](O)CC[C@]4(C)[C@H]3CC[C@@]21C [CERTONARDOSTEROL D3] | 1.36 (≈ 2.93 µM) | 2.48 (≈ 5.34 µM) | 0.68 (≈ 1.46 µM) | 1.33 (≈ 2.86 µM) | 0.84 (≈ 1.81 µM) |
| CO[C@@H]1CO[C@@H](OCC[C@@H](CC[C@@H](C)[C@H]2[C@@H](O)[C@@H](O)[C@H]3[C@@H]4C[C@H](O)[C@H]5C[C@@H](O)CC[C@]5(C)[C@H]4CC[C@]23C)C(C)C)[C@H](O)[C@H]1O [CERTONARDOSIDE O1] | 1.25 (≈ 1.99 µM) | 2.28 (≈ 3.64 µM) | 0.68 (≈ 1.08 µM) | 2 (≈ 3.19 µM) | 0.74 (≈ 1.18 µM) |
| CC(C)[C@@H](CCO)CC[C@@H](C)[C@H]1C[C@H](O)[C@H]2[C@@H]3C[C@@H](O)[C@H]4C[C@@H](O)CC[C@]4(C)[C@H]3CC[C@@]21C [CERTONARDOSTEROL E2] | 0.48 (≈ 1.03 µM) | 1.26 (≈ 2.71 µM) | 0.28 (≈ 0.602 µM) | 0.83 (≈ 1.79 µM) | 0.4 (≈ 0.861 µM) |
| CO[C@@H]1CO[C@@H](OCC[C@@H](CC[C@@H](C)[C@H]2[C@@H](O)[C@@H](O)[C@H]3[C@@H]4C[C@H](O)[C@H]5[C@@H](O)[C@@H](O)CC[C@]5(C)[C@H]4CC[C@]23C)C(C)C)[C@H](O)[C@H]1O [CERTONARDOSIDE J2] | 3.41 (≈ 5.3 µM) | 8.2 (≈ 12.8 µM) | 2.36 (≈ 3.67 µM) | 3.29 (≈ 5.12 µM) | 3.53 (≈ 5.49 µM) |
| C[C@H](/C=C/[C@@H](C)[C@H]1CC(O)[C@H]2[C@@H]3CC(O)[C@H]4C[C@@H](O)CC[C@]4(C)[C@H]3CC[C@]12C)[C@H](C)CO (single isomer, unassigned) [CERTONARDOSTEROL E3] | 0.54 (≈ 1.2 µM) | 0.73 (≈ 1.63 µM) | 0.4 (≈ 0.891 µM) | 0.69 (≈ 1.54 µM) | 0.33 (≈ 0.735 µM) |
| CO[C@@H]1CO[C@@H](OCC[C@@H](CC[C@@H](C)[C@H]2[C@@H](O)[C@@H](O)[C@@H]3[C@]2(C)CC[C@@H]2[C@@]4(C)CC[C@H](O)C[C@@H]4[C@@H](O)C[C@]23O)C(C)C)[C@H](O)[C@H]1O [CERTONARDOSIDE P1] | 0.87 (≈ 1.35 µM) | 2.17 (≈ 3.38 µM) | 0.26 (≈ 0.404 µM) | 0.89 (≈ 1.38 µM) | 0.35 (≈ 0.544 µM) |
| C[C@H](/C=C/[C@@H](C)[C@H]1C[C@@H](O)[C@@H]2[C@]1(C)CC[C@@H]1[C@@]3(C)CC[C@H](O)[C@H](O)[C@@H]3[C@@H](O)C[C@]12O)[C@H](C)CO [CERTONARDOSTEROL A2] | 1.75 (≈ 3.64 µM) | 2.54 (≈ 5.28 µM) | 0.67 (≈ 1.39 µM) | 1.13 (≈ 2.35 µM) | 0.89 (≈ 1.85 µM) |
| CC(C)[C@@H](CCO)CC[C@@H](C)[C@H]1[C@@H](O)[C@@H](O)[C@H]2[C@@H]3C[C@H](O)[C@H]4C[C@@H](O)CC[C@]4(C)[C@H]3CC[C@]12C [CERTONARDOSTEROL N1] | 0.82 (≈ 1.71 µM) | 1.25 (≈ 2.6 µM) | 0.4 (≈ 0.832 µM) | 0.9 (≈ 1.87 µM) | 0.43 (≈ 0.894 µM) |
